The target in the test is T1, human recombinant HPK1 (Homo sapiens, UniProt Q92918).
T1 construct: purchased BPS Bioscience
In words: Inhibitory activity against human recombinant HPK1 (TR-FRET). The format is biochemical. Particulars: ULight-p70S6K peptide, ATP at Km, room temperature, 1 hour, 0.32 to 1000 nM compound. An outline of the steps: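 IC50 classes A–D use 10, 50 and 100 nM cut-offs, derived from TR-FRET signal inhibition relative to DMSO controls. Human recombinant HPK1 phosphorylated ULight-p70S6K peptide at Km ATP for 1 h, room temperature, pH 7.4; test range 0.32–1000 nM final, detection with Eu-labelled antibody after EDTA quench.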
(TR-FRET usually uses a lanthanide donor and a delayed reading to cut background.)

The structures appear in SMILES notation. Structures can show the parent of a compound that is named as a salt.

In general, IC50 refers to the concentration that gives 50% inhibition.

T1 sequence (Q92918 whole entry): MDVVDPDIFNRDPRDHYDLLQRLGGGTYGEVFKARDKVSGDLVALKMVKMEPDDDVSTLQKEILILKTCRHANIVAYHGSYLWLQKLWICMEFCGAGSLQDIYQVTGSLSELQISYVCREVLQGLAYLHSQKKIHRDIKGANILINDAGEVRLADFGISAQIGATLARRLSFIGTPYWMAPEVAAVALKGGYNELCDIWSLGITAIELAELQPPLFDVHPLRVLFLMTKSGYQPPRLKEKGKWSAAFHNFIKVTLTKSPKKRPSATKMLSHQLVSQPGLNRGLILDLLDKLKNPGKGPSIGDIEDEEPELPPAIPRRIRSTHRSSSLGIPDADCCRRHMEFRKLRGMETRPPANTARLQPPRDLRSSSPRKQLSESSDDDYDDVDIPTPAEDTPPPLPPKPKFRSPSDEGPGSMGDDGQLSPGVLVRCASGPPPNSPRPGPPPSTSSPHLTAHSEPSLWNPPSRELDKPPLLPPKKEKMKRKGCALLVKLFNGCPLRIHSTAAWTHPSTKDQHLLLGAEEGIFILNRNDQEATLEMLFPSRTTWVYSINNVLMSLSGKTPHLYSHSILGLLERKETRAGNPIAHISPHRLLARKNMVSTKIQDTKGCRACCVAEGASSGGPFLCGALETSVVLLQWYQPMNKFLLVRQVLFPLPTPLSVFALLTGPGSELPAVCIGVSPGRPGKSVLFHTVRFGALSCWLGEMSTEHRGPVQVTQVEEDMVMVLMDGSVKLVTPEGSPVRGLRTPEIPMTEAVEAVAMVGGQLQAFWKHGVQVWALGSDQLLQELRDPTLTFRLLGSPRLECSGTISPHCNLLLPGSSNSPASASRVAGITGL

Consider `COc1cccc(F)c1-c1nccc(Nc2cc(N3C[C@@H](N)C[C@H](F)C3)c(-c3cnn(C(F)F)c3)cn2)n1` [Example 304, N-(4-((3S,5S)-3-amino-5-fluoropiperidin-1-yl)-5-(1-(difluoromethyl)-1H-pyrazol-4-yl)pyridin-2-yl)-2-(2-fluoro-6-methoxyphenyl)pyrimidin-4-amine hydrochloride], for which the IC50 is at most 0.01 µM.
In the case of `COc1cccc(F)c1-c1nccc(Nc2cc(N3C[C@@H](N)C[C@@H](C(F)(F)F)C3)c(-c3cnn(C(F)F)c3)cn2)n1` [Example 305, N-(4-((3S,5R)-3-amino-5-(trifluoromethyl)piperidin-1-yl)-5-(1-(difluoromethyl)-1H-pyrazol-4-yl)pyridin-2-yl)-2-(2-fluoro-6-methoxyphenyl)pyrimidin-4-amine hydrochloride], the IC50 is at most 0.01 µM.
As for `COc1cccc(F)c1-c1nccc(Nc2cc(N3C[C@@H](N)C[C@H](O)C3)c(-c3cnn(C(F)F)c3)cn2)n1` [Example 306, (3S,5S)-5-amino-1-(5-(1-(difluoromethyl)-1H-pyrazol-4-yl)-2-((2-(2-fluoro-6-methoxyphenyl)pyrimidin-4-yl)amino)pyridin-4-yl)piperidin-3-ol hydrochloride], the figure is at most 0.01 µM; as for `COc1cccc(F)c1-c1nccc(Nc2cc(N3CC[C@H](N)[C@H](F)C3)c(-c3cnn(C(F)F)c3)cn2)n1` [Example 307, N-(4-((3R,4S)-4-amino-3-fluoropiperidin-1-yl)-5-(1-(difluoromethyl)-1H-pyrazol-4-yl)pyridin-2-yl)-2-(2-fluoro-6-methoxyphenyl)pyrimidin-4-amine hydrochloride], at most 0.01 µM; as for `COc1cccc(F)c1-c1nccc(Nc2cc(N3CC[C@@H](N)[C@@H](F)C3)c(-c3cnn(C(F)F)c3)cn2)n1` [Example 308, N-(4-((3S,4R)-4-amino-3-fluoropiperidin-1-yl)-5-(1-(difluoromethyl)-1H-pyrazol-4-yl)pyridin-2-yl)-2-(2-fluoro-6-methoxyphenyl)pyrimidin-4-amine hydrochloride], at most 0.01 µM.
For `COc1cc(F)cc(F)c1-c1nc(Nc2cc(N3CCC[C@H](N)C3)c(-c3cnn(C4CCOCC4)c3)cn2)ccc1C#N` [Example 309, 6-((4-((S)-3-aminopiperidin-1-yl)-5-(1-(tetrahydro-2H-pyran-4-yl)-1H-pyrazol-4-yl)pyridin-2-yl)amino)-2-(2,4-difluoro-6-methoxyphenyl)nicotinonitrile hydrochloride], the IC50 was at most 0.01 µM.
To `COc1cc(F)cc(F)c1-c1nc(Nc2cc(N3CCC[C@H](N)C3)c(-c3cnn(C(F)F)c3)cn2)ccc1C#N` [Example 310, 6-((4-((S)-3-aminopiperidin-1-yl)-5-(1-(difluoromethyl)-1H-pyrazol-4-yl)pyridin-2-yl)amino)-2-(2,4-difluoro-6-methoxyphenyl)nicotinonitrile hydrochloride] belongs at most 0.01 µM; to `COc1cc(F)cc(F)c1-c1nccc(Nc2cc(N3CCC[C@H](N)C3)c(C#CC3(C)CCOCC3)cn2)n1` [Example 311, (S)-N-(4-(3-aminopiperidin-1-yl)-5-((4-methyltetrahydro-2H-pyran-4-yl)ethynyl)pyridin-2-yl)-2-(2,4-difluoro-6-methoxyphenyl)pyrimidin-4-amine], at most 0.01 µM; to `COc1cc(F)cc(F)c1-c1nccc(Nc2cc(N3CCC[C@H](N)C3)c(C#CC3(O)CCOCC3)cn2)n1` [Example 312, (S)-4-((4-(3-aminopiperidin-1-yl)-6-((2-(2,4-difluoro-6-methoxyphenyl)pyrimidin-4-yl)amino)pyridin-3-yl)ethynyl)tetrahydro-2H-pyran-4-ol], at most 0.01 µM.
As for `COc1cc(F)cc(F)c1-c1nccc(Nc2cc(N3CCC[C@H](N)C3)c(C#CC(C)(C)O)cn2)n1` [Example 313, (S)-4-(4-(3-aminopiperidin-1-yl)-6-((2-(2,4-difluoro-6-methoxyphenyl)pyrimidin-4-yl)amino)pyridin-3-yl)-2-methylbut-3-yn-2-ol], the figure is at most 0.01 µM; as for `COc1cc(F)cc(F)c1-c1nccc(Nc2cc(N3CCC[C@H](N)C3)c(C#CCCO)cn2)n1` [Example 314, (S)-4-(4-(3-aminopiperidin-1-yl)-6-((2-(2,4-difluoro-6-methoxyphenyl)pyrimidin-4-yl)amino)pyridin-3-yl)but-3-yn-1-ol], at most 0.01 µM.
As for `COc1cccc(F)c1-c1nc(Nc2cc(N3CCC[C@H](N)C3)c(-c3cnn(C(F)F)c3)cn2)ccc1S(C)(=O)=O` [Example 315, 4-((S)-3-aminopiperidin-1-yl)-5-(1-(difluoromethyl)-1H-pyrazol-4-yl)-N-(6-(2-fluoro-6-methoxyphenyl)-5-(methylsulfonyl)pyridin-2-yl)pyridin-2-amine hydrochloride], the figure is at most 0.01 µM; as for `COc1cccc(F)c1-c1nc(Nc2cc(N3CCC[C@H](O)C3)c(-c3cnn(CC(F)(F)F)c3)cn2)ccc1C#N` [Example 316, 2-(2-fluoro-6-methoxyphenyl)-6-((4-((S)-3-hydroxypiperidin-1-yl)-5-(1-(2,2,2-trifluoroethyl)-1H-pyrazol-4-yl)pyridin-2-yl)amino)nicotinonitrile], at most 0.01 µM.
Take `COc1cc(F)cc(F)c1-c1nc(Nc2cc(N3CCC[C@H](O)C3)c(-c3cnn(CC(F)(F)F)c3)cn2)ccc1C#N` [Example 317, 2-(2,4-difluoro-6-methoxyphenyl)-6-((4-((S)-3-hydroxypiperidin-1-yl)-5-(1-(2,2,2-trifluoroethyl)-1H-pyrazol-4-yl)pyridin-2-yl)amino)nicotinonitrile]: the IC50 was at most 0.01 µM.
As for `COc1cccc(F)c1-c1nc(Nc2cc(N3CCC[C@H](N)C3)c(-c3cnn(CC(F)(F)F)c3)cn2)ccc1C#N` [Example 318, 6-((4-((S)-3-aminopiperidin-1-yl)-5-(1-(2,2,2-trifluoroethyl)-1H-pyrazol-4-yl)pyridin-2-yl)amino)-2-(2-fluoro-6-methoxyphenyl)nicotinonitrile hydrochloride], the figure is at most 0.01 µM; as for `COc1cccc(F)c1-c1nc(Nc2cc(N3CCC[C@H](N)C3)c(-c3cnn(CC(C)(C)O)c3)cn2)ccc1C#N` [Example 319, 6-((4-((S)-3-aminopiperidin-1-yl)-5-(1-(2-hydroxy-2-methylpropyl)-1H-pyrazol-4-yl)pyridin-2-yl)amino)-2-(2-fluoro-6-methoxyphenyl)nicotinonitrile hydrochloride], at most 0.01 µM; as for `COc1cc(F)cc(F)c1-c1nc(Nc2cc(N3CCC[C@H](N)C3)c(-c3cnn(CC(F)(F)F)c3)cn2)ccc1C#N` [Example 320, 6-((4-((S)-3-aminopiperidin-1-yl)-5-(1-(2,2,2-trifluoroethyl)-1H-pyrazol-4-yl)pyridin-2-yl)amino)-2-(2,4-difluoro-6-methoxyphenyl)nicotinonitrile hydrochloride], at most 0.01 µM.
To `COc1cccc(F)c1-c1nc(Nc2cc(N3CC[C@@H](F)[C@H](N)C3)c(-c3cnn(C(F)F)c3)cn2)ccc1C#N` [Example 321, 6-((4-((3R,4R)-3-amino-4-fluoropiperidin-1-yl)-5-(1-(difluoromethyl)-1H-pyrazol-4-yl)pyridin-2-yl)amino)-2-(2-fluoro-6-methoxyphenyl)nicotinonitrile hydrochloride] belongs at most 0.01 µM; to `COc1cccc(F)c1-c1nc(Nc2cc(N3CC[C@H](F)[C@H](N)C3)c(-c3cnn(C(F)F)c3)cn2)ccc1C#N` [Example 322, 6-((4-((3R,4S)-3-amino-4-fluoropiperidin-1-yl)-5-(1-(difluoromethyl)-1H-pyrazol-4-yl)pyridin-2-yl)amino)-2-(2-fluoro-6-methoxyphenyl)nicotinonitrile hydrochloride], at most 0.01 µM; to `COc1cccc(F)c1-c1nc(Nc2cc(N3CCC[C@H](N)C3)c(-c3ccc(N4CCOCC4)nc3)cn2)ccc1C#N` [Example 323, 6-((4-((S)-3-aminopiperidin-1-yl)-6′-morpholino-[3,3′-bipyridin]-6-yl)amino)-2-(2-fluoro-6-methoxyphenyl)nicotinonitrile hydrochloride], at most 0.01 µM.
Consider `COc1cc(F)cc(F)c1-c1nccc(Nc2cc(N3C[C@@H](N)C[C@@H](F)C3)c(-c3cnn(CC(F)(F)F)c3)cn2)n1` [Example 324, N-(4-((3S,5R)-3-amino-5-fluoropiperidin-1-yl)-5-(2-(2,2,2-trifluoroethyl)-1H-pyrazol-4-yl)pyridin-2-yl)-2-(2,4-difluoro-6-methoxyphenyl)pyrimidin-4-amine], for which the IC50 is at most 0.01 µM.
To `COc1cccc(F)c1-c1nc(Nc2cc(N3CCC[C@H](O)C3)c(-c3cnn(C4CCN(C)CC4)c3)cn2)ccc1C#N` [Example 325, 2-(2-fluoro-6-methoxyphenyl)-6-((4-((S)-3-hydroxypiperidin-1-yl)-5-(1-(1-methylpiperidin-4-yl)-1H-pyrazol-4-yl)pyridin-2-yl)amino)nicotinonitrile] belongs at most 0.01 µM.
With `COc1cccc(F)c1-c1nc(Nc2cc(N3CC[C@@H](N)[C@H](O)C3)c(-c3cnn(C(F)F)c3)cn2)ccc1C#N` [Example 326, 6-((4-((3R,4R)-4-amino-3-hydroxypiperidin-1-yl)-5-(1-(difluoromethyl)-1H-pyrazol-4-yl)pyridin-2-yl)amino)-2-(2-fluoro-6-methoxyphenyl)nicotinonitrile], the IC50 was at most 0.01 µM.
As for `CCn1cc(-c2cnc(Nc3ccc(C#N)c(-c4c(F)cccc4OC)n3)cc2N2CCC[C@H](N)C2)cn1` [Example 327, 6-((4-((S)-3-aminopiperidin-1-yl)-5-(1-ethyl-1H-pyrazol-4-yl)pyridin-2-yl)amino)-2-(2-fluoro-6-methoxyphenyl)nicotinonitrile hydrochloride], the figure is at most 0.01 µM.

For the origin of these results see patent US20260347338A1, “PYRIMIDINE/PYRIDINE DERIVATIVES OR SALTS THEREOF AND PHARMACEUTICAL COMPOSITIONS COMPRISING THE SAME” (YUHAN CORPORATION, priority 2023, published 2026).
